Assay [1] addresses T1, human phosphopantothenoylcysteine synthetase (hPPCS) (Homo sapiens, UniProt Q9HAB8). Nature of the assay: X-ray crystal structure at […] Å. The class given is binding.
Assay [2] addresses T2, human pantothenate kinase hPANK1β (Homo sapiens, UniProt Q8TE04).
T2 sequence (Q8TE04 1-373 isoform Q8TE04-2): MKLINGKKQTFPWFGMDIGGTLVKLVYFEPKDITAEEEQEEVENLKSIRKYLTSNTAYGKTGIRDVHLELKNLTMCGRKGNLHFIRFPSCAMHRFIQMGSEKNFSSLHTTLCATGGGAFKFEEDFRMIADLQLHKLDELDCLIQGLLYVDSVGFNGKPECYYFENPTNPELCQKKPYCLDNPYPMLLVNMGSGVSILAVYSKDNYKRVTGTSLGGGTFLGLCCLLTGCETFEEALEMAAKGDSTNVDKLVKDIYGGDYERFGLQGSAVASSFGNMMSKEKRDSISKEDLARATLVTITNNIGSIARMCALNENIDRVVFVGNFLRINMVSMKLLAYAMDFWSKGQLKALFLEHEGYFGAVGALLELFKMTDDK
Nature of the assay: PK/LDH-coupled kinase assay, substrate turnover. The class given is biochemical. As to conditions: read-out: KM or K0.5.

The target in assay [3] is T3, fruit fly phosphopantothenoylcysteine synthetase (dPPCS) (Drosophila melanogaster, UniProt Q7KN99).
T3 sequence (Q7KN99 1-313): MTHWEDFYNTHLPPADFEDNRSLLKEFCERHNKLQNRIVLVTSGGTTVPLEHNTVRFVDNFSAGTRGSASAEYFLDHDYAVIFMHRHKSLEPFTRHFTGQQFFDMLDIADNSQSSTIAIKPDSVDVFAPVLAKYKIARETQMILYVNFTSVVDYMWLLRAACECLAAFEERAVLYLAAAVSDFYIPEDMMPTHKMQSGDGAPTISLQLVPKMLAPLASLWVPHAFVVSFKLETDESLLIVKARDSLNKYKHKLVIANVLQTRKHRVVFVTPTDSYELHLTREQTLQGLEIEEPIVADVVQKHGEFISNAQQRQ
Description: pyrophosphate-coupled NADH oxidation enzyme assay. The class given is biochemical.

In assay [4] the target is T1, human phosphopantothenoylcysteine synthetase (hPPCS). Nature of the assay: X-ray crystal structure at […] Å. The class given is biochemical.

T1 sequence (Q9HAB8 2-311): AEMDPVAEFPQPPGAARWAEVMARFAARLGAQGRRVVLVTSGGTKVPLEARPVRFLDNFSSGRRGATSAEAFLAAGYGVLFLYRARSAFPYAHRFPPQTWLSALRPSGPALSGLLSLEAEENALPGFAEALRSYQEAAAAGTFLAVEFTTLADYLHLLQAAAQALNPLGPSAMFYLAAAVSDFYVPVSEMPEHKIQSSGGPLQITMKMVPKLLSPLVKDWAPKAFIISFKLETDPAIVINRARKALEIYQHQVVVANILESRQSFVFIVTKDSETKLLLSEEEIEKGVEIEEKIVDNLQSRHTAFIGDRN

For the compound `Nc1ncnc2c1ncn2[C@@H]1O[C@H](CO[P@](=O)(O)O[P@](=O)(O)NP(=O)(O)O)[C@@H](O)[C@H]1O` [AMPPNP], in assay [1], the “X-ray crystal structure at 1.9 Å (ternary complex with P-HoPan)” value is “electron densities for the co-factor AMPPNP and the ligand P-HoPan observed in both monomers”.

For `CC(C)(CO)[C@@H](O)C(=O)NCCCC(=O)O` [compound 1, HoPan], in assay [2], the Michaelis constant (Km) (usually the concentration of substrate that gives half-maximal velocity) was found to be 12.1 ± 1.9 µM.

Regarding `CC(C)(COP(=O)(O)O)[C@@H](O)C(=O)NCCCC(=O)O` [compound 2, P-HoPan], the Ki (in general, the equilibrium dissociation constant of an inhibitor or competing ligand from its target) in assay [3] was found to be 20.9 ± 1.1 µM; in assay [4], 13.4 ± 3.6 µM.

As to `CC(C)(CO)[C@@H](O)C(=O)NCCC(=O)O` [compound 3, Pan], in assay [2], the Km was 6.2 ± 0.88 µM.

For the compound `CC(C)(CO)[C@@H](O)C(=O)NCCC(=O)NCCS` [compound 6, PantSH], the Michaelis-Menten constant (Km) in assay [2] amounted to 9.85 ± 1.17 µM.

Values taken from publication PMC8726015 (ACS chemical biology, 2021).
